From ChEMBL document CHEMBL1134058, “Phospho-Azatyrosine, a less effective protein-tyrosine phosphatase substrate than phosphotyrosine” (Bioorg Med Chem Lett, 2001)
Numbered stars: 1 amine (or outer) side, 2 acyl side, 3 side chain; on linkers, the order of the positions; unused ones are H or OH. Square brackets hold non-standard residues; d marks the D form. Peptide text beside a SMILES is read from it. X1 = O=C([C@H](Cc1ccc(OP(=O)(O)O)cn1)N[*:1])[*:2]; pY = N[C@@H](Cc1ccc(OP(=O)(O)O)cc1)C(=O)O

Biological target: T1, Tyrosine-protein phosphatase non-receptor type 1 (Homo sapiens) (UniProt P18031)
T1 sequence (whole entry): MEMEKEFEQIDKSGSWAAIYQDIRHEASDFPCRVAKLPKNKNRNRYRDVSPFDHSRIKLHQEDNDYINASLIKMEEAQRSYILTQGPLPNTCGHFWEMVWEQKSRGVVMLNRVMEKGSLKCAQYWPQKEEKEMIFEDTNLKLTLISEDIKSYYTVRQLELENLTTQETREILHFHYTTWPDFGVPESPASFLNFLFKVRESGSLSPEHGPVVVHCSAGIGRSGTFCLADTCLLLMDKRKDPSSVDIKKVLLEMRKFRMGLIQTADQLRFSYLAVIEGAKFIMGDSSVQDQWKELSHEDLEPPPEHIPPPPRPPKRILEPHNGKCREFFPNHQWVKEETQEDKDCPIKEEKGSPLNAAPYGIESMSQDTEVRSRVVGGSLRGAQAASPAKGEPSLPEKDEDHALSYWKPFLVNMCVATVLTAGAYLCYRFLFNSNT
Experiment: Catalytic turnover rate was determined.

k cat [s⁻¹] | Compound
68 | CC(=O)N[C@@H](CC(=O)O)C(=O)N[C@@H](C)C(=O)N[C@@H](CC(=O)O)C(=O)N[C@@H](CCC(=O)O)C(=O)N[C@@H](Cc1ccc(OP(=O)(O)O)cc1)C(=O)N[C@@H](CC(C)C)C(N)=O (Ac-DADE[pY]L-NH2)
52 | CC(=O)N[C@@H](CC(=O)O)C(=O)N[C@@H](C)C(=O)N[C@@H](CC(=O)O)C(=O)N[C@@H](CCC(=O)O)C(=O)N[C@@H](Cc1ccc(OP(=O)(O)O)cn1)C(=O)N[C@@H](CC(C)C)C(N)=O (Ac-DADE[X1]L-NH2)
